From paper PMC9027957, “Interspecies Comparisons of the Effects of Potential Antiviral 3-Amidinophenylalanine Derivatives on Cytochrome P450 1A2 Isoenzyme” (Veterinary Sciences, 2022)

What was measured:
[1] = 60 min microsomal stability assay (UPLC-MS/MS), rat liver microsomes; type: in vitro ADME; conditions: rat microsomes, 50 µM, 0.6 mg/mL protein, mean ± SD (n = 3)
Protocol: (§1) Rat, beagle (Gibco, Biocenter, Szeged, Hungary), and cynomolgus monkey (Primacyt, Schwerin, Germany) liver microsomes were exposed to inhibitors MI-432, MI-463, MI-482, or MI-1900 at 50 µM for 60 min. The final microsomal protein concentration in the suspension was 0.6 mg/mL in each case. The reaction buffer (100 mM phosphate buffer pH 7.4) also contained 1 mM nicotinamide adenine dinucleotide phosphate (NADPH), 5 mM MgCl2, 10 mM glucose-6-phosphate (G6P), and 2 IU/mL glucose-6-phosphate dehydrogenase (G6PD). The reaction was terminated by the addition of ice-cold acetonitrile (ACN) with the ratio of sample ACN volume = 1:2. The precipitated protein was removed by centrifugation at 10,000× g for 10 min, and the supernatants were used for subsequent analyses.
(§2) The determination of all analytes was carried out using an UPLC/MS/MS system, which consisted of an HPLC apparatus (SCIEX ExionLC^TM UPLC, Framigham, MA, USA) and a SCIEX Qtrap 4500 triple-quadrupole mass spectrometer (Framigham, MA, USA) equipped with a SCIEX Turbo V electrospray ionization source. The HPLC columns used were LiChrospher RP Select B (125 × 4.0 mm, 5.0 μm, C8 stationary phase). Next, 0.1% trifluoroacetic acid in ultra-purified water (A) and acetonitrile (B) were used as mobile phases for chromatographic separations applying a gradient elution. The HPLC gradient program was the following: between 0 and 10 min, a ratio of 70% A and 30% B; from 10 to 20 min, linearly increasing to a ratio of 50% A and 50% B; from 20 to 21 min, maintained at a ratio of 50% A and 50% B; from 21 to 22 min, linearly decreasing back to a ratio of 70% A and 30% B; and between 22 min and 30 min, maintained at a ratio of 70% A and 30% B. The run time was 30 min, the column temperature was adjusted to 35 °C, and the flow rate was 1 mL/min.

[2] = target: T1, CYP1A2 (Rattus norvegicus, UniProt P04799); test: CYP1A2 fluorometric activity assay in rat hepatic microsomes; type: in vitro ADME, rat (Sprague–Dawley); design: Rat (Sprague–Dawley) and beagle (Gibco, Biocenter, Szeged, Hungary, protein concentration: 20 mg/mL) hepatic microsomal preparations; tissue Gibco, Biocenter, Szeged, Hungary; host or cells: liver (hepatic microsomes), Sprague-Dawley rat; conditions: 15 min at 37 °C
T1 sequence (P04799 1-513): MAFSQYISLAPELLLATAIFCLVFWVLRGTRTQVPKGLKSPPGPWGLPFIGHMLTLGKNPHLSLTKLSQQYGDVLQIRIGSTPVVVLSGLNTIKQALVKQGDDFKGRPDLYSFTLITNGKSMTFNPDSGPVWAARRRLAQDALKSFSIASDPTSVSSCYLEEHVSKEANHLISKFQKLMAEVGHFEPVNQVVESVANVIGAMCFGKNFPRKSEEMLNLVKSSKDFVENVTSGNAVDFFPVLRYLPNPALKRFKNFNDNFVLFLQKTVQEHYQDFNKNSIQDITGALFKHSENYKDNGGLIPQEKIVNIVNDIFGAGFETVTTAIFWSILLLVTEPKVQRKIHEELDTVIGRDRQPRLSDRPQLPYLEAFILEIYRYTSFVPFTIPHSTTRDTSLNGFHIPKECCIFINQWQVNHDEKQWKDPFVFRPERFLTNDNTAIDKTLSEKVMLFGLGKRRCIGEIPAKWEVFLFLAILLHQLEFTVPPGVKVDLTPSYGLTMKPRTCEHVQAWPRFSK
Protocol: (§3) The Biovision CYP assay (BioVision, Inc., Kampenhout, Belgium) utilizes a non-fluorescent CYP1A2 substrate capable of transforming into a highly fluorescent metabolite, which can be detected in the visible range. α-naphthoflavone was used as a CYP1A2 reference inhibitor at 6 µM during the experiments. Rat (Sprague–Dawley) and beagle (Gibco, Biocenter, Szeged, Hungary, protein concentration: 20 mg/mL) hepatic microsomal preparations were prepared separately by mixing 25 µL of the obtained rat or beagle microsomal suspension with 2425 µL assay buffer and with 50 µL NADPH generating system (100×). In the case of the cynomolgus monkey microsomal suspension (Primacyt, Schwerin, Germany, protein concentration: 5 mg/mL), the following volumes were applied: in addition to 100 µL of monkey microsomal suspension, the amount of assay buffer and the NADPH generating system were adjusted in order to ensure the original ratios of these components to reach a final volume of 2500 µL. Rat, beagle, and cynomolgus monkey microsomal suspension aliquots (50 µL) were treated with the protease inhibitor 20 µL, 0–1000 µM), the reference compound α-naphthoflavone (20 µL, 30 µM), or the assay buffer without test compounds (20 µL, background control) for 15 min at 37 °C. After incubation, 30 µL of the appropriate CYP1A2 substrate/NADP+ mixture was added to each well, yielding a final reaction volume of 100 µL/well. The protein contents of the obtained microsomes were analysed using bicinchoninic acid protein assay kit (Pierce BCA kit, Thermo Fisher Scientific, Waltham, MA, USA). […] The fluorescence intensities were measured with a fluorometer (Victor X2 2030, Perkin Elmer, Waltham, MA, USA), using λEx/Em = 406/468 nm.

[3] = 60 min microsomal stability assay (UPLC-MS/MS), cynomolgus monkey liver microsomes; type: in vitro ADME; conditions: monkey microsomes, 50 µM, 0.6 mg/mL protein, mean ± SD (n = 3)
Protocol: as §1, §2

[4] = 60 min microsomal stability assay (UPLC-MS/MS), beagle liver microsomes; type: in vitro ADME; conditions: beagle microsomes, 50 µM, 0.6 mg/mL protein, mean ± SD (n = 3)
Protocol: as §1, §2

[5] = target: T2, CYP1A2 (Macaca fascicularis, UniProt O77809); test: CYP1A2 fluorometric activity assay in cynomolgus monkey hepatic microsomes; type: in vitro ADME; design: cynomolgus monkey microsomal suspension (Primacyt, Schwerin, Germany, protein concentration: 5 mg/mL); tissue Primacyt, Schwerin, Germany; host or cells: liver (hepatic microsomes); conditions: for CYP1A2 in the cynomolgus monkey microsomal model: inhibitors at 50 µM
T2 sequence (O77809 1-516): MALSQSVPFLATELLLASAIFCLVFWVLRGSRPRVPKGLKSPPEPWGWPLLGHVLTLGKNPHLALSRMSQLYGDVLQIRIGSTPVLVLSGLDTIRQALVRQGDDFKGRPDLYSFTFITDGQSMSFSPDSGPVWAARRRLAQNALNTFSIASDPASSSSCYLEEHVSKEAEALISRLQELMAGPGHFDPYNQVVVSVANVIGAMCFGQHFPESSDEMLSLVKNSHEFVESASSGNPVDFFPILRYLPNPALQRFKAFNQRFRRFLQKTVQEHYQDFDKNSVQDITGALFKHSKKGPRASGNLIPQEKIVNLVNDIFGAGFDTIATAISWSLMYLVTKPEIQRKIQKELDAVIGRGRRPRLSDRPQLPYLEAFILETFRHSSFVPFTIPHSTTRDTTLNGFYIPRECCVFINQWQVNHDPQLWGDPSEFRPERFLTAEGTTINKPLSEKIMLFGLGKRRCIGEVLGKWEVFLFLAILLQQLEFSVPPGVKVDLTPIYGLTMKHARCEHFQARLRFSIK
Protocol: as §3

[6] = target: T3, CYP1A2 (Canis lupus familiaris, UniProt P56592); test: CYP1A2 fluorometric activity assay in beagle hepatic microsomes; type: in vitro ADME; conditions: 15 min at 37 °C
T3 construct: endogenous in cells; host or cells: beagle hepatocytes
T3 sequence (P56592 1-512): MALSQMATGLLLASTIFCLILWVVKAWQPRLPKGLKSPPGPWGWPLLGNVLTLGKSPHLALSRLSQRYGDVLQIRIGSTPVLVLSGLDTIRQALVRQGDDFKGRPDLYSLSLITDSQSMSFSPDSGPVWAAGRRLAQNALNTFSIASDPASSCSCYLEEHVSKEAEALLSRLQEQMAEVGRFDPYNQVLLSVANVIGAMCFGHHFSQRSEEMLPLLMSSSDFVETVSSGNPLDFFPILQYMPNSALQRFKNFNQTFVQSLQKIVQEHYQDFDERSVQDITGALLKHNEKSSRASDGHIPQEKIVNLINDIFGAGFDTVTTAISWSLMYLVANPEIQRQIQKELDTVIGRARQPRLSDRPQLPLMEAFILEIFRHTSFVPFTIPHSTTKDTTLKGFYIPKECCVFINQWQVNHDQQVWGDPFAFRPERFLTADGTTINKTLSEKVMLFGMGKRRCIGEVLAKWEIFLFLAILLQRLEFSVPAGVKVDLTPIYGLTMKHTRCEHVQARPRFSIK
Protocol: as §3

[7] = target: T2, CYP1A2; conditions: 10 µM
Protocol: (§4) For the measurements of CYP1A2 activities, hepatocytes were grown on 24-well collagen-coated membrane inserts (Costar Transwell-PTFE membrane, 6.5 mm, pore size: 0.4 µm, Merck, Darmstadt, Germany). […] The determination of the CYP1A2 activities were performed using the P450-Glo CYP450 Assay (Promega, Madison, WI, USA) according to the manufacturer’s instructions.

[8] = target: T1, CYP1A2; test: CYP1A2 luminescent (P450-Glo) activity assay in rat hepatocytes; type: cell-based; design: endogenous in cells; host or cells: rat hepatocytes; conditions: positive control at 10 µM
Protocol: as §4

[9] = target: T3, CYP1A2; type: cell-based; conditions: dog, 10 µM
Protocol: as §4

[10] = inhibitors at 50 µM, vs untreated control

Structure (SMILES)	depletion percentage of the parent compound [1] [%]	rat hepatic microsomal CYP1A2 isoenzyme activity [2, 10]	depletion percentage of the parent compound [3] [%]	depletion percentage of the parent compound [4] [%]	IC50 [5] [µM]	CYP1A2 in the cynomolgus monkey microsomal model [5]	beagle hepatic microsomal CYP1A2 isoenzyme activity [6, 10]	CYP1A2 activity in cynomolgus monkey hepatocytes [7]	rat hepatic microsomal CYP1A2 isoenzyme activity ([2]; reference inhibitor at 6 µM)	CYP1A2 activity in rat hepatocytes [8]	beagle hepatic microsomal CYP1A2 isoenzyme activity ([6]; reference inhibitor at 6 µM)	CYP1A2 activity in beagle hepatocytes [9]
COc1ccc(-c2cccc(S(=O)(=O)N[C@@H](Cc3cccc(C(=N)N)c3)C(=O)N3CCC(NC(=O)NC4CCCCC4)CC3)c2)c(OC)c1 [MI-463]	15.1 ± 6.5	suppressed	17.7 ± 4.6	15.7 ± 8	2.4 ± 1.4	inhibited	–	–	–	–	–	–
N=C(N)c1cccc(C[C@H](NS(=O)(=O)c2cccc(-c3cc(CO)ccc3Cl)c2)C(=O)N2CCC(CCNC(=O)NC3CCCCC3)CC2)c1 [MI-482]	31.4 ± 1.1	did not inhibit CYP1A2 function	15.1 ± 7.3	39.3 ± 6	0.21 ± 0.09	inhibited	reduced the activity of CYP1A2	–	–	–	–	–
O=c1cc(-c2ccccc2)oc2c1ccc1ccccc12 [α-naphthoflavone, reference compound]	–	–	–	–	–	–	–	significantly suppress CYP1A2 activities	significantly suppressed CYP1A2 activities	significantly suppress CYP1A2 activities	significantly suppressed CYP1A2 activities	significantly suppress CYP1A2 activities
